Here are results for 5 molecules from patent US9233961B2, “Compounds and compositions for the treatment of parasitic diseases” (Novartis AG, priority 2013, dated 2016).

Like-named read-outs stand apart in the source and are kept apart here.

The conditions of series [1]: patients injected; cited from earlier work.
In series [2] the test system is Leishmania donovani axenic amastigote parasites. The series can be described thus: Leishmania donovani axenic amastigote proliferation assay. The format is cell-based. The following applies: axenic amastigotes in vitro, read-out: L. donovani amastigotes EC50. The procedure, abridged: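 EC50 values come from CellTiter-Glo luminescence after 2-day compound exposure of axenic amastigotes (9600 per well) at 37 °C, 5% CO2. Medium: RPMI 1640, 20% heat-inactivated FBS, folic acid, adenosine, D-glucose, 25 mM MES, adjusted to pH 5.5.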

For series [3], the system named is L. donovani HU3 strain in mouse peritoneal macrophages. The series can be described thus: Assay for proliferation of Leishmania parasites in mouse peritoneal macrophages. It counts as cell-based, Leishmania donovani. The conditions noted are these: Leishmania donovani, Peritoneal macrophage. The procedure, abridged: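 EC50 derives from counting SYBR Green-stained parasite nuclei by high-content imaging after 5 days' compound exposure. Host cells were uninfected BALB/c peritoneal macrophages, infected for 24 h before dosing with spleen-derived L. donovani HU3 parasites from mice infected 9–11 weeks.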

Series [4] relates to Trypanosoma brucei Lister 427 strain bloodstream form. The series can be described thus: Assay for proliferation of kinetoplastid parasite Trypanosoma brucei. It counts as cell-based. The following applies: Lister 427 bloodstream form, 48 hours, read-out: T. brucei EC50. The procedure, abridged: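 Bloodstream-form T. brucei Lister 427 in HMI-9 medium was exposed to compound (DMSO vehicle) for 48 hours at 37° C, 5% CO2. Parasite growth was read as ATP by CellTiter-Glo luminescence, with EC50 calculated from percent inhibition.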

Series [5] concerns Trypanosoma cruzi amastigotes (Tulahuen strain) cultured in 3T3 fibroblast cells. The series can be described thus: Assay for proliferation of kinetoplastid parasite Trypanosoma cruzi. It counts as cell-based. The following applies: 144 h, Tulahuen amastigotes in 3T3 fibroblast cells, 6 day incubation, read-out: T cruzi EC50.
[6] abbreviates: read-out: L. donavani Macrophage EC50.

Usually EC50 stands for the concentration needed to bring the measured effect to its halfway point.

As for `Nc1nc(N)nc(Nc2ccc([As]3SCC(CO)S3)cc2)n1` (stereo not shown) [Melarsoprol], in series [1], the “patients who developed reactive encephalopathy (convulsions, progressive coma, or psychotic reactions)” value was 3-10% and the “reactive encephalopathy cases that result in death” value is 10-70%.

For `CN(C(=O)OC(C)(C)C)c1ccc(-c2cnc3nc(-c4cc(NC(=O)N5CCCC5)ccc4Cl)[nH]c3c2)cc1` [Compound 308, tert-butyl N-[4-(2-{2-chloro-5-[(pyrrolidin-1-yl)carbonylamino]phenyl}-1H-imidazo[4,5-b]pyridin-6-yl)phenyl]-N-methylcarbamate], the EC50 in series [2] is 0.114 µM; in series [3] (120 h, L. donovani in mouse peritoneal macrophages, 5 days culture, SybrGreen parasite nuclei count, read-out: EC50), around 0.08 µM; in series [3] (setting [6]), 0.085 µM; in series [4], 0.025 µM; in series [5], 0.023 µM.

As for `Cc1cnc2nc(-c3cc(NC(=O)c4cc(Cl)ccc4Cl)ccc3Cl)[nH]c2c1` [Compound 98], the EC50 in series [2] was found to be 16.7 µM; in series [3] (setting [6]), 23.5 µM; in series [4] it was 2.91 µM; in series [5] it was 1.18 µM.

In the case of `Cc1cnc2nc(-c3cc(NC(=O)c4ccc(C)[nH]4)ccc3Cl)[nH]c2c1` [Compound 124], the EC50 was above 25 µM in series [2], 13.8 µM in series [3] (setting [6]), above 25 µM in series [4] and above 14.3 µM in series [5].

For the molecule `Cc1cnc2nc(-c3cc(NC(=O)C4CCCCO4)ccc3Cl)[nH]c2c1` (stereo not shown) [Compound 131], the EC50 in series [2] is 22.1 µM; in series [3] (setting [6]), above 50 µM; in series [4], 5.1 µM; in series [5], 6.8 µM.
